Reference: ChEMBL document CHEMBL6115010, “Targeting glioma with heteroaromatic alkaloids: A review of potential therapeutics” (Bioorg Med Chem, 2025)
In brackets after ≈: the same amount, converted by molar mass.

Key:
[1] = Cytotoxicity against human U373 MG cells assessed as reduction in cell growth incubated for 24 hrs by MTT colorimetric assay; type: functional, cell-based, U-373MG ATCC
SW1088 = assay: Cytotoxicity against human SW1088 cells assessed as reduction in cell growth incubated for 24 hrs by MTT colorimetric assay; type: functional, cell-based; conditions: SW1088, 24 h
[2] = Toxicity in ip dosed B6D2F1 mouse assessed as maximum tolerated dose measured after 28 days; type: organism-based; conditions: in vivo, time 28 day
GAMG = assay: Antiproliferative activity against human GAMG cells assessed as reduction in cell viability incubated for 48 hrs by MTS reagent based assay; type: functional
H4 = assay: Antiproliferative activity against human H4 cells assessed as reduction in cell viability incubated for 72 hrs by Prestoblue-reagent based assay; type: functional; conditions: H4, 72 h
U-87 MG [3] = assay: Antiproliferative activity against human U-87 MG cells assessed as reduction in cell viability at 100 uM incubated for 72 hrs by Prestoblue-reagent based assay relative to control; type: functional, U-87MG ATCC
SF-268 [4] = assay: Antiproliferative activity against human SF-268 cells; type: functional, cell-based
SF-295 = assay: Cytotoxicity against human SF-295 cells assessed as reduction in cell growth incubated for 96 hrs by MTT assay; type: functional, cell-based; conditions: SF-295, 96 h
SF-268 [5] = assay: Cytotoxicity against human SF-268 cells assessed as reduction in cell viability incubated for 72 hrs by SRB assay; type: functional, cell-based; conditions: SF-268, 72 h
CCF-STTG1 [6] = assay: Cytotoxicity against human CCF-STTG1 cells assessed as reduction in cell viability incubated for 48 hrs by MTT assay; type: functional, cell-based; conditions: CCF-STTG1, 48 h
[7] = Cytotoxicity against human CHG-5 cells assessed as reduction in cell viability incubated for 48 hrs by MTT assay; type: functional, cell-based; conditions: CHG-5, 48 h
[8] = Cytotoxicity against human SHG-44 cells assessed as reduction in cell viability incubated for 48 hrs by MTT assay; type: functional, cell-based; conditions: SHG-44, 48 h
U-251 [9] = assay: Cytotoxicity against human U-251MG cells assessed as reduction in cell viability incubated for 48 hrs by MTT assay; type: functional, cell-based; conditions: U-251, 48 h
U-87 MG [10] = assay: Cytotoxicity against human U-87 MG cells by resazurin dye based assay; type: functional, cell-based, U-87MG ATCC
[11] = Cytotoxicity against human U87MG.deltaEGFR cells by resazurin dye based assay; type: functional, cell-based
[12] = Cytotoxicity against human CHG-5 cells assessed as reduction in cell viability incubated for 24 hrs by MTT assay; type: functional, cell-based; conditions: CHG-5, 24 h
[13] = Cytotoxicity against human SHG-44 cells assessed as reduction in cell viability incubated for 24 hrs by MTT assay; type: functional, cell-based; conditions: SHG-44, 24 h
U-251 [14] = assay: Cytotoxicity against human U-251MG cells assessed as reduction in cell viability incubated for 24 hrs by MTT assay; type: functional, cell-based; conditions: U-251, 24 h
CCF-STTG1 [15] = assay: Cytotoxicity against human CCF-STTG1 cells assessed as reduction in cell viability incubated for 24 hrs by MTT assay; type: functional, cell-based; conditions: CCF-STTG1, 24 h
SH-SY5Y [16] = assay: Cytotoxicity against human SH-SY5Y cells; type: functional, cell-based
CCF-STTG1 [17] = assay: Cytotoxicity against human CCF-STTG1 cells assessed as reduction in cell growth incubated for 24 hrs by MTT assay; type: functional, cell-based; conditions: CCF-STTG1, 24 h
[18] = Cytotoxicity against human GSC-3 cells assessed as reduction in cell viability incubated for 72 hrs by MTS assay; type: functional, cell-based; conditions: GSC-3, 72 h
[19] = Cytotoxicity against human CHG-5 cells assessed as reduction in cell growth incubated for 48 hrs by MTT assay; type: functional, cell-based; conditions: CHG-5, 48 h
SH-SY5Y [20] = assay: Cytotoxicity against human SH-SY5Y cells assessed as reduction in cell growth incubated for 48 hrs by MTT assay; type: functional, cell-based
[21] = Cytotoxicity against human SHG-44 cells assessed as reduction in cell growth incubated for 48 hrs by MTT assay; type: functional, cell-based; conditions: SHG-44, 48 h
U-251 [22] = assay: Cytotoxicity against human U-251MG cells assessed as reduction in cell growth incubated for 48 hrs by MTT assay; type: functional, cell-based; conditions: U-251, 48 h
[23] = Cytotoxicity against human U-343MG cells assessed as reduction in cell growth incubated for 48 hrs by MTT assay; type: functional, cell-based
[24] = Cytotoxicity against human GL15 cells assessed as reduction in cell growth incubated for 48 hrs by MTT assay; type: functional, cell-based; conditions: GL15, 48 h

## O=C1c2c(O)ccnc2-c2nccc3c2c1nc1ccccc13
[1]
  IC50: 6 µM
SW1088
  IC50: 6 µM
[2]
  MTD at 672 h: > 160 mg/kg

## O=C1c2cccnc2-c2nccc3c2c1nc1cc(Br)ccc13
[1]
  IC50: 0.6 µM
SW1088
  IC50: 0.4 µM
[2]
  MTD at 672 h: 20 mg/kg

## COC(=O)C1=CO[C@@H](C)[C@@H]2CN3CC[C@]4(C(=O)Nc5ccccc54)[C@@H]3C[C@H]12
GAMG
  IC50: 20.1 µM

## CC1=NCCc2c1[nH]c1ccccc21
H4
  IC50: 33.5 µM
U-87 MG [3]
  inhibition at 100 µM: 30%

## C[C@@H]1CC[C@H]2C(C)(C)[C@H](O)CC[C@]2(C)[C@@]12Cc1c(O)cc3c(c1O2)C(=O)NC3=O
SF-268 [4]
  IC50: 43.3 µM

## C[C@@H]1CC[C@H]2C(C)(C)[C@H](O)CC[C@]2(C)[C@@]12Cc1c(O)cc3c(c1O2)CNC3=O
SF-268 [4]
  IC50: 67.2 µM

## C[C@@H]1CC[C@H]2C(C)(C)[C@H](O)CC[C@]2(C)[C@@]12Cc1c(O)cc3c(c1O2)C(=O)NC3
SF-268 [4]
  IC50: 11.2 µM

## COc1cc2c(cc1OC)[C@H](O)[C@@H]1c3c(cc4c(c3-2)OCO4)CCN1C
SF-295
  IC50: 1.41 mg/L (≈ 3.97 µM)

## C/C=C(\C)[C@H](O)[C@H](C)/C=C(C)/C=C(\C)C/C(C)=C/Cc1nc(OC)c(OC)c(O)c1C
SF-268 [5]
  IC50: 30.2 µM

## COC(=O)N1CCc2cc(O)c(OC)c3c4c(cc1c23)C(=O)C=C(OC)C4=O
CCF-STTG1 [6]
  IC50: 9.2 µM
[7]
  IC50: 10.8 µM
[8]
  IC50: 10.8 µM
U-251 [9]
  IC50: 11.3 µM

## Oc1cc2c3c(c1O)c1cc4c(cc1c[n+]3CC2)OCO4
CCF-STTG1 [6]
  IC50: 10.3 µM
[7]
  IC50: 10.2 µM
[8]
  IC50: 9.4 µM
U-251 [9]
  IC50: 11.8 µM

## COc1cc(OC)c2c(=O)c3ccccc3n(C)c2c1
U-87 MG [10]
  IC50: 17.6 µM
[11]
  IC50: 8.88 µM

## CC(=O)O[C@@H]1C2C3C[C@H]4C5=Nc6ccccc6[C@]51C[C@@H]2[N+]4([O-])[C@@H](C)[C@@H]3C=O (some centres not stated)
[12]
  IC50: 12.9 µM
[13]
  IC50: 11.8 µM
U-251 [14]
  IC50: 12.3 µM
CCF-STTG1 [15]
  IC50: 12.3 µM

## Cc1cc2[nH]c(=O)c(=O)n(CC(O)C(O)C(O)CO)c2cc1C (configuration not stated)
SH-SY5Y [16]
  IC50: 71.2 µM

## C/C=C1\C2C[C@H]3C4=Nc5ccccc5[C@]45C[C@@H](C2[C@H]5OC(C)=O)[N+]3([O-])[C@H]1C (some centres not stated)
[12]
  IC50: 15.8 µM
[13]
  IC50: 17.4 µM
U-251 [14]
  IC50: 14.9 µM
CCF-STTG1 [15]
  IC50: 16.7 µM

## COc1cc2c(cc1O)C(=O)O[C@H]1[C@@H]2[C@H]2C(=C[C@@H]1O)CC[N+]2(C)[O-] (some centres not stated)
CCF-STTG1 [17]
  IC50: 83.2 µM

## COc1cc2c(c(Oc3ccc(C=O)cc3)c1OC)C[C@H]1c3c(c(OC)c(OC)c(OC)c3-2)CCN1C
[18]
  IC50: 14.5 mg/L (≈ 28.7 µM)

## COc1c2c(cc3[nH]c4ccccc4c(=O)c13)OCO2
U-87 MG [10]
  IC50: 89.3 µM
[11]
  IC50: 5.72 µM

## COc1cc2c(c(Oc3ccc(C=O)cc3)c1OC)-c1c(OC)c(OC)c(OC)c3ccnc(c13)C2=O
[18]
  IC50: 16.3 mg/L (≈ 32.5 µM)

## COc1cc2c(cc1O)C(=O)O[C@@H]1CC=C3CC[N+](C)([O-])[C@H]3[C@H]21 (some centres not stated)
CCF-STTG1 [17]
  IC50: 93 µM

## O[C@H]1[C@H]2c3cc4c(cc3C=[N+]3CCC(=C[C@@H]1O)[C@H]23)OCO4
CCF-STTG1 [6]
  IC50: 10.3 µM
[7]
  IC50: 10.2 µM
[8]
  IC50: 9.4 µM
U-251 [9]
  IC50: 11.8 µM

## CC(=O)O[C@H]1c2cc3c(cc2[C@]24C=C[C@H](O)C[C@H]2N1C[C@H]4O)OCO3
CCF-STTG1 [6]
  IC50: 29.4 µM
[7]
  IC50: 29.4 µM
[8]
  IC50: 28.3 µM
U-251 [9]
  IC50: 15.8 µM

## COc1cc2c(c(Oc3ccc(C=O)cc3)c1OC)C[C@H]1c3c(cc(OC)c(OC)c3-2)CCN1C
[18]
  IC50: 19.2 mg/L (≈ 40.5 µM)

## N#Cc1cnc2ccccc2c1O
SH-SY5Y [16]
  IC50: 66.8 µM

## CC(C)=CC[C@]12C/C=C(/C)Oc3cccc(CO)c3/C(N)=C(/C(=O)C=C1C)C2=O
SF-268 [4]
  IC50: 17.9 µM

## CO[C@@H]1C=C[C@@]23c4cc5c(cc4CN(CCc4ccc(O)cc4)[C@@H]2CN(C)[C@H]3C1)OCO5
[19]
  IC50: 41.8 µM
SH-SY5Y [20]
  IC50: 53.7 µM
[21]
  IC50: 43.7 µM
U-251 [22]
  IC50: 46.6 µM
[23]
  IC50: 43.2 µM
[24]
  IC50: 39.8 µM

## CC/C=C(\C)[C@H](O)[C@H](C)/C=C(C)/C=C(\C)C/C(C)=C/Cc1nc(OC)c(OC)c(O)c1C
SF-268 [5]
  IC50: 45.9 µM
